Reference: publication PMC8880564, “Design, Synthesis, and Biological Evaluation of a Novel VEGFR-2 Inhibitor Based on a 1,2,5-Oxadiazole-2-Oxide Scaffold with MAPK Signaling Pathway Inhibition” (Pharmaceuticals, 2022)

Columns and labels:
Assay in all cases: NCI-60 one-dose SRB screening
Type in all cases: cell-based
SF-295 = conditions: Homo sapiens, SF-295, CNS Cancer, 10 µM one dose, 48 h, read-out: growth percentage
MALME-3M = conditions: Homo sapiens, Melanoma, 10 µM one dose, 48 h, read-out: growth percentage
HOP-62 = conditions: Homo sapiens, HOP-62, Non-Small Cell Lung Cancer, 10 µM one dose, 48 h, read-out: growth percentage
SW-620 = conditions: Homo sapiens, SW-620, Colon Cancer, 10 µM one dose, 48 h, read-out: growth percentage
UO-31 = conditions: Homo sapiens, UO-31, Renal Cancer, 10 µM one dose, 48 h, read-out: growth percentage
HCT-15 = conditions: Homo sapiens, HCT-15, Colon Cancer, 10 µM one dose, 48 h, read-out: growth percentage
T-47D = conditions: Homo sapiens, T47D, Breast Cancer, 10 µM one dose, 48 h, read-out: growth percentage
UACC-257 = conditions: Homo sapiens, UACC-257, Melanoma, 10 µM one dose, 48 h, read-out: growth percentage
A498 = conditions: Homo sapiens, A498, Renal Cancer, 10 µM one dose, 48 h, read-out: growth percentage
OVCAR-4 = conditions: Homo sapiens, OVCAR-4, Ovarian Cancer, 10 µM one dose, 48 h, read-out: growth percentage
SK-MEL-2 = conditions: Homo sapiens, SK-MEL-2, Melanoma, 10 µM one dose, 48 h, read-out: growth percentage
NCI-H322M = conditions: Homo sapiens, Non-Small Cell Lung Cancer, 10 µM one dose, 48 h, read-out: growth percentage
HT29 = conditions: Homo sapiens, HT-29, HT29, Colon Cancer, 10 µM one dose, 48 h, read-out: growth percentage
BT-549 = conditions: Homo sapiens, BT-549, Breast Cancer, 10 µM one dose, 48 h, read-out: growth percentage
EKVX = conditions: Homo sapiens, Non-Small Cell Lung Cancer, 10 µM one dose, 48 h, read-out: growth percentage
U251 = conditions: Homo sapiens, U-251, U251, CNS Cancer, 10 µM one dose, 48 h, read-out: growth percentage
HCC-2998 = conditions: Homo sapiens, HCC-2998, Colon Cancer, 10 µM one dose, 48 h, read-out: growth percentage
OVCAR-3 = conditions: Homo sapiens, OVCAR-3, Ovarian Cancer, 10 µM one dose, 48 h, read-out: growth percentage
UACC-62 = conditions: Homo sapiens, UACC-62, Melanoma, 10 µM one dose, 48 h, read-out: growth percentage
OVCAR-5 = conditions: Homo sapiens, OVCAR-5, Ovarian Cancer, 10 µM one dose, 48 h, read-out: growth percentage
SK-MEL-5 = conditions: Homo sapiens, SK-MEL-5, Melanoma, 10 µM one dose, 48 h, read-out: growth percentage
MDA-MB-468 = conditions: Homo sapiens, MDA-MB-468, Breast Cancer, 10 µM one dose, 48 h, read-out: growth percentage

Row | Structure (SMILES) | activity at 10 µM (SF-295) | activity at 10 µM (MALME-3M) | activity at 10 µM (HOP-62) | activity at 10 µM (SW-620) | activity at 10 µM (UO-31) | activity at 10 µM (HCT-15) | activity at 10 µM (T-47D) | activity at 10 µM (UACC-257) | activity at 10 µM (A498) | activity at 10 µM (OVCAR-4) | activity at 10 µM (SK-MEL-2) | activity at 10 µM (NCI-H322M) | activity at 10 µM (HT29) | activity at 10 µM (BT-549) | activity at 10 µM (EKVX) | activity at 10 µM (U251) | activity at 10 µM (HCC-2998) | activity at 10 µM (OVCAR-3) | activity at 10 µM (UACC-62) | activity at 10 µM (OVCAR-5) | other results
1 | Cc1nn(-c2ccc(Br)cc2)c2nc(CNc3ccc(NCc4c(-c5ccccc5)no[n+]4[O-])cc3)[nH]c(=O)c12 [14c, 3-(((4-(((1-(4-bromophenyl)-3-methyl-4-oxo-4,5-dihydro-1H-pyrazolo[3,4-d]pyrimidin-6-yl)methyl)amino)phenyl)amino)methyl)-4-phenyl-1,2,5-oxadiazole 2-oxide] | 115% | 92.5% | 116% | 111% | 83.4% | 97.3% | 103% | 101% | 104% | 127% | 107% | 104% | 110% | 98.1% | 98.9% | 99.1% | 112% | 93.9% | 105% | 110% | activity at 10 µM (SK-MEL-5): 104%; activity at 10 µM (MDA-MB-468): 94.4%
2 | Nc1ccc(NCc2c(-c3ccccc3)no[n+]2[O-])cc1 [compound 11, 3-(((4-aminophenyl)amino)methyl)-4-phenyl-1,2,5-oxadiazole 2-oxide] | 117% | 100% | 136% | 115% | 98.9% | 104% | 101% | 99.2% | 108% | 118% | 105% | 103% | 111% | 103% | 109% | 102% | 118% | 111% | 95.5% | 116% | activity at 10 µM (SK-MEL-5): 112%; activity at 10 µM (MDA-MB-468): 85.3%
